In US10131652B2, “Pyrimidinyloxy benzene derivatives as herbicides” (E. I. DU PONT DE NEMOURS AND COMPANY, priority 2014, dated 2018):

What was measured:
Type in all cases: in vivo
[1] = test system: small-flower umbrella sedge (Cyperus difformis); experiment: Test C flooded paddy test plant response; conditions: Flood, 250 g ai/ha; scale of 0 to 100 where 0 is no effect and 100 is complete control; 13 to 15 days
Procedure, shortened: (§1)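 Flooded-pot format, 3 cm water over soil maintained for the test duration; test compounds dispensed into the water at the 2-leaf stage. Greenhouse holding 13 to 15 days. Plants evaluated visually relative to untreated controls, 0 meaning no effect and 100 complete control.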

[2] = test system: barnyardgrass (Echinochloa crus-galli); experiment: Test C flooded paddy test plant response; conditions: Flood, 250 g ai/ha; scale of 0 to 100 where 0 is no effect and 100 is complete control; 13 to 15 days
Procedure, shortened: as §1

[3] = test system: ducksalad (Heteranthera limosa); experiment: Test C flooded paddy test plant response; conditions: Flood, 250 g ai/ha; scale of 0 to 100 where 0 is no effect and 100 is complete control; 13 to 15 days
Procedure, shortened: as §1

[4] = test system: rice (Oryza sativa); experiment: Test C flooded paddy test plant response; conditions: Flood, 250 g ai/ha; scale of 0 to 100 where 0 is no effect and 100 is complete control; 13 to 15 days
Procedure, shortened: as §1

[5] = test system: galium (catchweed bedstraw, Galium aparine); experiment: Test D pre-/postemergence plant response; conditions: Postemergence; for Galium plant response rating: scale 0 to 100 (0 no effect, 100 complete control); for Plant response rating, Galium: scale 0 to 100, 0 no effect, 100 complete control
Source text: (§2) Seeds of plant species selected from blackgrass (Alopecurus myosuroides), Italian ryegrass (Lolium multiflorum), winter wheat (Triticum aestivum), galium (catchweed bedstraw, Galium aparine), corn (Zea mays), large (Lg) crabgrass (Digitaria sanguinalis), giant foxtail (Setaria faberii), johnsongrass (Sorghum halepense), lambsquarters (Chenopodium album), morningglory (Ipomoea coccinea), yellow nutsedge (Cyperus esculentus), pigweed (Amaranthus retroflexus), ragweed (common ragweed, Ambrosia elatior), soybean (Glycine max), bamyardgrass (Echinochloa crus-galli), oilseed rape (Brassica napus), waterhemp (common waterhemp, Amaranthus rudis), and velvetleaf (Abutilon theophrasti) were planted into a blend of loam soil and sand and treated preemergence with test chemicals formulated in a non-phytotoxic solvent mixture which included a surfactant. At the same time, plants selected from these crop and weed species and also kochia (Kochia scoparia), wild oat (Avena fatua), and chickweed (common chickweed, Stellaria media) were planted in pots containing Redi-Earth® planting medium (Scotts Company, 14111 Scottslawn Road, Marysville, Ohio 43041) comprising spaghnum peat moss, vermiculite, wetting agent and starter nutrients and treated with postemergence applications of test chemicals formulated in the same manner. Plants ranged in height from 2 to 18 cm (1- to 4-leaf stage) for postemergence treatments. Treated plants and controls were maintained in a greenhouse for 13 to 15 days, after which time all species were compared to controls and visually evaluated. Plant response ratings, summarized in Table D, are based on a scale of 0 to 100 where 0 is no effect and 100 is complete control. A dash (-) response means no test result.

[6] = test system: winter wheat (Triticum aestivum); experiment: Test D pre-/postemergence plant response; conditions: Postemergence; for Wheat plant response rating: scale 0 to 100 (0 no effect, 100 complete control); for Plant response rating, Wheat: scale 0 to 100, 0 no effect, 100 complete control
Source text: as §2

[7] = test system: oilseed rape (Brassica napus); experiment: Test D pre-/postemergence plant response; conditions: Postemergence; for Oilseed Rape plant response rating: scale 0 to 100 (0 no effect, 100 complete control); for Plant response rating, Oilseed Rape: scale 0 to 100, 0 no effect, 100 complete control
Source text: as §2

[8] = test system: johnsongrass (Sorghum halepense); experiment: Test D pre-/postemergence plant response; conditions: Postemergence; for Johnsongrass plant response rating: scale 0 to 100 (0 no effect, 100 complete control); for Plant response rating, Johnsongrass: scale 0 to 100, 0 no effect, 100 complete control
Source text: as §2

[9] = test system: ragweed (common ragweed, Ambrosia elatior); experiment: Test D pre-/postemergence plant response; conditions: Postemergence; for Ragweed plant response rating: scale 0 to 100 (0 no effect, 100 complete control); for Plant response rating, Ragweed: scale 0 to 100, 0 no effect, 100 complete control
Source text: as §2

[10] = test system: barnyardgrass (Echinochloa crus-galli); experiment: Test B pre-/postemergence plant response
Procedure, shortened: (§3)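 Visual injury scores on a 0–100 scale (100 = complete control) relative to untreated plants, taken about 10 days post-treatment in greenhouse. Treatments were a directed preemergence soil spray and a postemergence spray at one- to two-leaf stage, using surfactant-containing solvent formulation.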

[11] = test system: wheat (Triticum aestivum); experiment: Test B pre-/postemergence plant response
Procedure, shortened: as §3

[12] = test system: giant foxtail (Setaria faberii); experiment: Test B pre-/postemergence plant response
Procedure, shortened: as §3

[13] = test system: pigweed (Amaranthus retroflexus); experiment: Test B pre-/postemergence plant response
Procedure, shortened: as §3

[14] = test system: corn (Zea mays); experiment: Test B pre-/postemergence plant response
Procedure, shortened: as §3

[15] = 125 g ai/ha, postemergence, 0 to 100 scale, 0 no effect, 100 complete control
[16] = Postemergence, 500 g ai/ha, 0 to 100 scale (0 no effect, 100 complete control)
[17] = Preemergence, 125 g ai/ha, 0 to 100 scale where 0 is no effect and 100 is complete control
[18] = Preemergence, 500 g ai/ha, 0 to 100 scale where 0 is no effect and 100 is complete control

## Cn1nnc(-c2ccccc2Oc2ncc(Br)cn2)n1 [Compound 50]
[1]
  Sedge, Umbrella plant response rating: 0
[2]
  Barnyardgrass plant response rating: 0
[3]
  Ducksalad plant response rating: 30
[4]
  Rice plant response rating: 0
[5]; 16 g ai/ha
  Galium plant response rating: 30
[5]; 31 g ai/ha
  Galium plant response rating: 15
[5]; 62 g ai/ha
  Plant response rating, Galium: 5
[5]; 125 g ai/ha
  Plant response rating, Galium: 60
[6]; 16 g ai/ha
  Wheat plant response rating: 0
[6]; 31 g ai/ha
  Wheat plant response rating: 0
[6]; 62 g ai/ha
  Plant response rating, Wheat: 5
[6]; 125 g ai/ha
  Plant response rating, Wheat: 5
[7]; 16 g ai/ha
  Oilseed Rape plant response rating: 5
[7]; 31 g ai/ha
  Oilseed Rape plant response rating: 5
[7]; 62 g ai/ha
  Plant response rating, Oilseed Rape: 10
[7]; 125 g ai/ha
  Plant response rating, Oilseed Rape: 30
[8]; 16 g ai/ha
  Johnsongrass plant response rating: 0
[8]; 31 g ai/ha
  Johnsongrass plant response rating: 0
[8]; 62 g ai/ha
  Plant response rating, Johnsongrass: 0
[8]; 125 g ai/ha
  Plant response rating, Johnsongrass: 0
[9]; 16 g ai/ha
  Ragweed plant response rating: 5
[9]; 31 g ai/ha
  Ragweed plant response rating: 5
[9]; 62 g ai/ha
  Plant response rating, Ragweed: 5
[9]; 125 g ai/ha
  Plant response rating, Ragweed: 15
[10]; [15]
  Plant response rating, Barnyardgrass: 0
[10]; [16]
  Plant response rating, Barnyardgrass: 0
[10]; [17]
  Plant response rating, Barnyardgrass: 0
[10]; [18]
  Plant response rating, Barnyardgrass: 10
[11]; [15]
  Plant response rating, Wheat: 0
[11]; [16]
  Plant response rating, Wheat: 20
[12]; [15]
  Plant response rating, Foxtail, Giant: 0
[12]; [16]
  Plant response rating, Foxtail, Giant: 10
[12]; [17]
  Plant response rating, Foxtail, Giant: 0
[12]; [18]
  Plant response rating, Foxtail, Giant: 50
[13]; [15]
  Plant response rating, Pigweed: 70
[13]; [16]
  Plant response rating, Pigweed: 100
[13]; [17]
  Plant response rating, Pigweed: 60
[13]; [18]
  Plant response rating, Pigweed: 100
[14]; [15]
  Plant response rating, Corn: 0
[14]; [16]
  Plant response rating, Corn: 0
